Results published in patent US6437093B1, “Methods of treatment comprising administration of Substance P” (Milkhaus Laboratory, Inc., priority 2000, dated 2002).
Ends that are not written are not given here.

Experiments:
Format in all cases: in vivo, human
[1] = test system: upper airway distress, persistent cough, RUDS (Reactive Upper Airway Dysfunction); test: Case report: persistent cough from RUDS triggered by volatile chemicals, sublingual Substance P; settings: person with RUDS; sublingual drop 8×10−^5 mg, one drop per hour for three hours then four times daily
Procedure: His disease appeared to be initiated by chronic exposure to floor stripper which caused RUDS (Reactive Upper Airway Dysfunction). […] Each drop contained 8×10−^5 mg synthetic Substance P (Sigma) in phosphate buffered saline.

[2] = test system: severe sciatic-like pain of the hip; test: Case report: severe sciatic-like hip pain in a diabetic subject, sublingual Substance P; settings: person with diabetes; sublingual administration as in Example 1
Procedure: Their disease appeared to be initiated by chronic exposure to floor stripper which caused RUDS (Reactive Upper Airway Dysfunction). […] Each drop contained 8×10−^5 mg synthetic Substance P (Sigma) in phosphate buffered saline. According to this example, a person presented with severe sciatic-like pain of the hip of long duration. The subject also presented with a diagnosis of diabetes. […] They continue well for over two years.

[3] = test system: chronic sciatic pain; test: Case report: chronic disabling sciatic pain, sublingual Substance P; settings: person
Procedure: Their disease appeared to be initiated by chronic exposure to floor stripper which caused RUDS (Reactive Upper Airway Dysfunction). […] Each drop contained 8×10−^5 mg synthetic Substance P (Sigma) in phosphate buffered saline. According to this example, a person presented with a diagnosis of chronic sciatic pain that was disabling and of several years duration. Analgesics helped reduce the pain. The subject was treated by sublingual administration of Substance P according to the method of Example 1.

[4] = test system: numbness, tingling and severe pain in feet and legs; test: Case report: numbness, tingling and severe pain in feet, legs and hands, sublingual Substance P; settings: person; sublingual administration as in Example 1
Procedure: Their disease appeared to be initiated by chronic exposure to floor stripper which caused RUDS (Reactive Upper Airway Dysfunction). […] Each drop contained 8×10−^5 mg synthetic Substance P (Sigma) in phosphate buffered saline. According to this example, a person presented with a history of numbness, tingling and severe pain in feet and legs eight years earlier. During the year immediately preceding their first office visit, the discomfort had spread to their hands. […] No cause of their discomfort could be determined, and the only relief they obtained was from narcotic analgesics.

[5] = test system: arthritis-like pain and inflammation of the knuckles; test: Case report: arthritis-like pain and inflammation of the knuckles, sublingual Substance P; settings: person; after three days of sublingual drop therapy, continued after two months
Procedure: Their disease appeared to be initiated by chronic exposure to floor stripper which caused RUDS (Reactive Upper Airway Dysfunction). […] Each drop contained 8×10−^5 mg synthetic Substance P (Sigma) in phosphate buffered saline. According to this example, a person with arthritis-like pain and inflammation of the knuckles but who tested negative for rheumatoid factor. […] The subject was treated by sublingual administration of Substance P according to the method. of Example 1.

[6] = test system: repetitive, almost tic-like, exaggerated cough; test: Case report: repetitive tic-like exaggerated cough, sublingual Substance P; settings: child
Procedure: Their disease appeared to be initiated by chronic exposure to floor stripper which caused RUDS (Reactive Upper Airway Dysfunction). […] Each drop contained 8×10−^5 mg synthetic Substance P (Sigma) in phosphate buffered saline. According to this example, a child presented with a repetitive, almost tic-like, exaggerated cough that was disruptive to their classmates and teacher. Several physicians were consulted without success and with no apparent cause found for the cough.

[7] = test system: RUDS manifested as severe hoarseness or aphonia; test: Case report: RUDS with severe hoarseness or aphonia, sublingual Substance P; settings: person, one drop four times daily or more if needed
Procedure: Their disease appeared to be initiated by chronic exposure to floor stripper which caused RUDS (Reactive Upper Airway Dysfunction). […] Each drop contained 8×10−^5 mg synthetic Substance P (Sigma) in phosphate buffered saline. According to this example, a person presented RUDS that manifested as severe hoarseness or even aphonia if exposed to volatile chemicals, and especially to fragrances. They had suffered for several years after being exposed to fragrances from several co-workers using multiple perfumes. Their airway problem was reduced only by complete avoidance of any exposure to volatile chemicals which dramatically changing their lifestyle. […] Their RUDS continues to be controlled by taking one drop of Substance P four times daily, or more frequently if needed.

## Substance P (RPKPQQFFGLM; not fully specified (C-terminus); UniProt P20366 58-68, looked up) [synthetic Substance P (Sigma) in phosphate buffered saline; a tachykinin naturally occurring in the body]
[1]
  effect on persistent cough: stopped almost immediately
[2]
  effect on sciatic-like hip pain: reduced the pain dramatically
[3]; daily doses over several months
  long-term control of sciatic pain: continued control of pain
[3]; first sublingual drop
  effect on chronic sciatic pain after first drop: instantly and dramatically “turned off” the pain
[4]
  need for narcotic analgesics: able to discontinue narcotics
  pain relief: almost immediate pain relief
[5]
  effect on arthritis-like pain and inflammation: “remarkable” improvement
[6]; continued sublingual treatment
  long-term control of cough disorder: continued to control this disorder after more than a year
[6]; sublingual administration as in Example 1
  effect on cough: stopped the cough within minutes
[7]
  effect on RUDS (hoarseness/aphonia): significant improvement
